From US20220289794A1, “SYNTHETIC ANTIMICROBIAL PEPTIDES” (priority 2019, published 2022)
In brackets after ≈: the same amount, converted by molar mass. Read-outs that look alike come from different tables or passages of the source. Non-standard residues stand in square brackets, D forms with d. Residues, ends and D or L forms follow the SMILES beside them. 2Nal = N[C@@H](Cc1ccc2ccccc2c1)C(=O)O; d2Nal = N[C@H](Cc1ccc2ccccc2c1)C(=O)O

Columns and labels:
[1] = system: Methicillin-resistant Staphylococcus aureus MRSA (ATCC BAA-1556); conditions: ATCC BAA-1556
[2] = system: Pseudomonas aeruginosa (ATCC 27883)
[3] = system: Escherichia coli (ATCC 25922); conditions: ATCC 25922
S. aureus ATCC 29213 = conditions: ATCC 29213
in vitro = conditions: human, fresh human red blood cells (washed), pH 7.4

Row | Compound | MIC MRSA ATCC BAA-1556 [1] [µg/mL] | MIC E. coli ATCC 25922 [3] [µg/mL] | MIC S. aureus ATCC 29213 (S. aureus ATCC 29213) [µg/mL] | HC50 at 0.5 h (in vitro) [µg/mL] | MIC P. aeruginosa ATCC 27883 ([2]; ATCC 27883) [µg/mL] | MIC P. aeruginosa ATCC 27883 ([2]; P. aeruginosa ATCC 27883) [µg/mL]
1 | N=C(N)NCCC[C@@H]1NC(=O)[C@H](CCCNC(=N)N)NC(=O)[C@H](CCCNC(=N)N)NC(=O)[C@H](Cc2ccc3ccccc3c2)NC(=O)[C@@H](Cc2ccc3ccccc3c2)NC(=O)[C@H](Cc2c[nH]c3ccccc23)NC(=O)[C@H](CCCNC(=N)N)NC1=O [IFX-103, c[Arg-Arg-Arg-Arg-Trp-naI-NaI]] (cyclo([2Nal]RRRRW[d2Nal])) | 3.1 (≈ 2.57 µM) | 12.5 (≈ 10.4 µM) | 3.1 (≈ 2.57 µM) | 170 | – | 12.5 (≈ 10.4 µM)
2 | N=C(N)NCCC[C@@H]1NC(=O)[C@H](CCCNC(=N)N)NC(=O)[C@H](Cc2ccc3ccccc3c2)NC(=O)[C@H](Cc2ccc3ccccc3c2)NC(=O)[C@@H](Cc2c[nH]c3ccccc23)NC(=O)[C@H](CCCNC(=N)N)NC(=O)[C@H](CCCNC(=N)N)NC1=O [IFX-104, c[Arg-Arg-Arg-Arg-trp-NaI-NaI]] (cyclo([2Nal][2Nal]RRRR[dW])) | 3.1 (≈ 2.57 µM) | 12.5 (≈ 10.4 µM) | 3.1 (≈ 2.57 µM) | 155 | – | 12.5 (≈ 10.4 µM)
3 | N=C(N)NCCC[C@@H]1NC(=O)[C@H](Cc2ccc3ccccc3c2)NC(=O)[C@H](Cc2ccc3ccccc3c2)NC(=O)[C@H](Cc2c[nH]c3ccccc23)NC(=O)[C@@H](CCCNC(=N)N)NC(=O)[C@H](CCCNC(=N)N)NC(=O)[C@H](CCCNC(=N)N)NC1=O [IFX-105, c[Arg-Arg-Arg-arg-Trp-NaI-NaI]] (cyclo([2Nal][2Nal]RRR[dR]W)) | 3.1 (≈ 2.57 µM) | 12.5 (≈ 10.4 µM) | 3.1 (≈ 2.57 µM) | 130 | – | 12.5 (≈ 10.4 µM)
4 | N=C(N)NCCC[C@@H]1NC(=O)[C@H](Cc2ccc3ccccc3c2)NC(=O)[C@H](Cc2ccc3ccccc3c2)NC(=O)[C@H](Cc2c[nH]c3ccccc23)NC(=O)[C@H](CCCNC(=N)N)NC(=O)[C@@H](CCCNC(=N)N)NC(=O)[C@H](CCCNC(=N)N)NC1=O [IFX-106, c[Arg-Arg-arg-Arg-Trp-NaI-NaI]] (cyclo([2Nal][2Nal]RR[dR]RW)) | 1.5 (≈ 1.24 µM) | 25 (≈ 20.7 µM) | 1.5 (≈ 1.24 µM) | 175 | – | 12.5 (≈ 10.4 µM)
5 | N=C(N)NCCC[C@H]1NC(=O)[C@@H](CCCNC(=N)N)NC(=O)[C@@H](CCCNC(=N)N)NC(=O)[C@@H](CCCNC(=N)N)NC(=O)[C@@H](Cc2ccc3ccccc3c2)NC(=O)[C@@H](Cc2ccc3ccccc3c2)NC(=O)[C@H](Cc2c[nH]c3ccccc23)NC1=O [IFX-109, c[arg-arg-arg-arg-Trp-naI-naI]] (cyclo(W[d2Nal][d2Nal][dR][dR][dR][dR])) | 1.5 (≈ 1.24 µM) | 12.5 (≈ 10.4 µM) | 3.1 (≈ 2.57 µM) | 190 | – | 12.5 (≈ 10.4 µM)
6 | N=C(N)NCCC[C@@H]1NC(=O)[C@@H](CCCNC(=N)N)NC(=O)[C@H](CCCNC(=N)N)NC(=O)[C@@H](CCCNC(=N)N)NC(=O)[C@@H](Cc2ccc3ccccc3c2)NC(=O)[C@@H](Cc2ccc3ccccc3c2)NC(=O)[C@H](Cc2c[nH]c3ccccc23)NC1=O [IFX-110, c[arg-Arg-arg-Arg-Trp-naI-naI]] (cyclo([dR]R[dR]RW[d2Nal][d2Nal])) | 1.5 (≈ 1.24 µM) | 12.5 (≈ 10.4 µM) | 3.1 (≈ 2.57 µM) | 225 | – | 12.5 (≈ 10.4 µM)
7 | N=C(N)NCCC[C@@H]1NC(=O)[C@H](CCCNC(=N)N)NC(=O)[C@H](CCCNC(=N)N)NC(=O)[C@@H](Cc2ccc3ccccc3c2)NC(=O)[C@@H](Cc2ccc3ccccc3c2)NC(=O)[C@H](Cc2c[nH]c3ccccc23)NC(=O)[C@H](CCCNC(=N)N)NC1=O [IFX-112, c[Arg-Arg-Arg-Arg-Trp-naI-naI]] (cyclo(RRRRW[d2Nal][d2Nal])) | 1.5 (≈ 1.24 µM) | 12.5 (≈ 10.4 µM) | 3.1 (≈ 2.57 µM) | 295 | – | 12.5 (≈ 10.4 µM)
8 | N=C(N)NCCC[C@H]1NC(=O)[C@H](Cc2ccc3ccccc3c2)NC(=O)[C@H](Cc2ccc3ccccc3c2)NC(=O)[C@H](Cc2c[nH]c3ccccc23)NC(=O)[C@@H](CCCNC(=N)N)NC(=O)[C@@H](CCCNC(=N)N)NC(=O)[C@@H](CCCNC(=N)N)NC1=O [IFX-113, c[arg-arg-arg-arg-Trp-NaI-NaI]] (cyclo([dR][dR][dR][dR]W[2Nal][2Nal])) | 1.5 (≈ 1.24 µM) | 12.5 (≈ 10.4 µM) | 3.1 (≈ 2.57 µM) | 365 | – | 12.5 (≈ 10.4 µM)

Now from value to molecule, other results behind:

Row | MIC MRSA ATCC BAA-1556 [1] [µg/mL] | MIC E. coli ATCC 25922 [3] [µg/mL] | MIC S. aureus ATCC 29213 (S. aureus ATCC 29213) [µg/mL] | HC50 at 0.5 h (in vitro) [µg/mL] | MIC P. aeruginosa ATCC 27883 ([2]; ATCC 27883) [µg/mL] | Compound | MIC P. aeruginosa ATCC 27883 ([2]; P. aeruginosa ATCC 27883) [µg/mL]
9 | 1.5 (≈ 1.24 µM) | 12.5 (≈ 10.4 µM) | 1.5 (≈ 1.24 µM) | 175 | 6.2 (≈ 5.14 µM) | N=C(N)NCCC[C@@H]1NC(=O)[C@H](CCCNC(=N)N)NC(=O)[C@@H](CCCNC(=N)N)NC(=O)[C@H](CCCNC(=N)N)NC(=O)[C@H](Cc2ccc3ccccc3c2)NC(=O)[C@H](Cc2ccc3ccccc3c2)NC(=O)[C@H](Cc2c[nH]c3ccccc23)NC1=O [IFX-107, c[Arg-arg-Arg-Arg-Trp-NaI-NaI]] (cyclo([2Nal][2Nal]R[dR]RRW)) | –
10 | 1.5 (≈ 1.24 µM) | 12.5 (≈ 10.4 µM) | 1.5 (≈ 1.24 µM) | 350 | 6.2 (≈ 5.14 µM) | N=C(N)NCCC[C@@H]1NC(=O)[C@H](CCCNC(=N)N)NC(=O)[C@H](CCCNC(=N)N)NC(=O)[C@@H](CCCNC(=N)N)NC(=O)[C@H](Cc2ccc3ccccc3c2)NC(=O)[C@H](Cc2ccc3ccccc3c2)NC(=O)[C@H](Cc2c[nH]c3ccccc23)NC1=O [IFX-108, c[arg-Arg-Arg-Arg-Trp-NaI-NaI]] (cyclo([2Nal][2Nal][dR]RRRW)) | –
11 | 3.1 (≈ 2.53 µM) | 12.5 (≈ 10.2 µM) | 3.1 (≈ 2.53 µM) | 375 | 12.5 (≈ 10.2 µM) | N=C(N)NCCC[C@@H](N)C(=O)N[C@H](CCCNC(=N)N)C(=O)N[C@H](CCCNC(=N)N)C(=O)N[C@H](CCCNC(=N)N)C(=O)N[C@@H](Cc1c[nH]c2ccccc12)C(=O)N[C@H](Cc1ccc2ccccc2c1)C(=O)N[C@H](Cc1ccc2ccccc2c1)C(=O)O [IFX-109-1] (H-[dR][dR][dR][dR]W[d2Nal][d2Nal]-OH) | –
12 | 3.1 (≈ 2.53 µM) | 25 (≈ 20.4 µM) | 3.1 (≈ 2.53 µM) | 330 | 25 (≈ 20.4 µM) | N=C(N)NCCC[C@@H](N)C(=O)N[C@@H](CCCNC(=N)N)C(=O)N[C@H](CCCNC(=N)N)C(=O)N[C@@H](CCCNC(=N)N)C(=O)N[C@@H](Cc1c[nH]c2ccccc12)C(=O)N[C@H](Cc1ccc2ccccc2c1)C(=O)N[C@H](Cc1ccc2ccccc2c1)C(=O)O [IFX-110-1] (H-[dR]R[dR]RW[d2Nal][d2Nal]-OH) | –
13 | 3.1 (≈ 2.53 µM) | 25 (≈ 20.4 µM) | 3.1 (≈ 2.53 µM) | 310 | 25 (≈ 20.4 µM) | N=C(N)NCCC[C@H](NC(=O)[C@@H](CCCNC(=N)N)NC(=O)[C@@H](N)CCCNC(=N)N)C(=O)N[C@H](CCCNC(=N)N)C(=O)N[C@@H](Cc1c[nH]c2ccccc12)C(=O)N[C@H](Cc1ccc2ccccc2c1)C(=O)N[C@H](Cc1ccc2ccccc2c1)C(=O)O [IFX-111-1] (H-R[dR]R[dR]W[d2Nal][d2Nal]-OH) | –
14 | 3.1 (≈ 2.53 µM) | 12.5 (≈ 10.2 µM) | 6.2 (≈ 5.07 µM) | 370 | 25 (≈ 20.4 µM) | N=C(N)NCCC[C@H](NC(=O)[C@H](CCCNC(=N)N)NC(=O)[C@H](CCCNC(=N)N)NC(=O)[C@@H](N)CCCNC(=N)N)C(=O)N[C@@H](Cc1c[nH]c2ccccc12)C(=O)N[C@H](Cc1ccc2ccccc2c1)C(=O)N[C@H](Cc1ccc2ccccc2c1)C(=O)O [IFX-112-1] (H-RRRRW[d2Nal][d2Nal]-OH) | –
15 | 6.2 (≈ 5.07 µM) | 12.5 (≈ 10.2 µM) | 6.2 (≈ 5.07 µM) | 300 | 12.5 (≈ 10.2 µM) | N=C(N)NCCC[C@@H](N)C(=O)N[C@H](CCCNC(=N)N)C(=O)N[C@H](CCCNC(=N)N)C(=O)N[C@H](CCCNC(=N)N)C(=O)N[C@@H](Cc1c[nH]c2ccccc12)C(=O)N[C@@H](Cc1ccc2ccccc2c1)C(=O)N[C@@H](Cc1ccc2ccccc2c1)C(=O)O [IFX-113-1] (H-[dR][dR][dR][dR]W[2Nal][2Nal]-OH) | –
16 | 3.1 (≈ 2.57 µM) | 12.5 (≈ 10.4 µM) | 3.1 (≈ 2.57 µM) | 380 | 25 (≈ 20.7 µM) | N=C(N)NCCC[C@@H]1NC(=O)[C@H](CCCNC(=N)N)NC(=O)[C@H](CCCNC(=N)N)NC(=O)[C@@H](Cc2ccc3ccccc3c2)NC(=O)[C@@H](Cc2ccc3ccccc3c2)NC(=O)[C@@H](Cc2c[nH]c3ccccc23)NC(=O)[C@H](CCCNC(=N)N)NC1=O [IFX-114, c[Arg-Arg-Arg-Arg-trp-naI-naI]] (cyclo(RRRR[dW][d2Nal][d2Nal])) | –
17 | 3.1 (≈ 2.57 µM) | 12.5 (≈ 10.4 µM) | 3.1 (≈ 2.57 µM) | 360 | 25 (≈ 20.7 µM) | N=C(N)NCCC[C@H]1NC(=O)[C@@H](CCCNC(=N)N)NC(=O)[C@@H](CCCNC(=N)N)NC(=O)[C@@H](Cc2ccc3ccccc3c2)NC(=O)[C@@H](Cc2ccc3ccccc3c2)NC(=O)[C@@H](Cc2c[nH]c3ccccc23)NC(=O)[C@@H](CCCNC(=N)N)NC1=O [IFX-115, c[arg-arg-arg-arg-trp-naI-naI]] (cyclo([dR][dR][dR][dR][dW][d2Nal][d2Nal])) | –
